Results: patent US20050187240A1, “Aaptamine and isoaaptamine and structural modifications thereof” (The Arizona Board of Regents, Acting for and on behalf of …, priority 2004, published 2005)
Converted amounts (≈) assume the structure as drawn. Where two headings read alike, the source gives them in different places.

Tests used:
pancreas BXPC-3 = assay: Cancer cell growth inhibition, pancreas BXPC-3; format: cell-based, human; settings: pancreas BXPC-3; for IC50: Homo sapiens
Method: (§1) Biology The cancer cell growth inhibitory properties were examined using the murine P388 lymphocytic leukemia cell line and a selection of human cancer cell lines.
(§2) All of the synthetic products were evaluated against a minipanel of human cancer cell lines, the murine P388 lymphocytic leukemia cell line and a selection of microorganisms.

Enterococcus faecalis = assay: Broth microdilution susceptibility assay, Enterococcus faecalis; format: cell-based
[1] = Stability of the substance (observation); format: physicochemical
Text: When newly isolated, isoaaptamine (2) appears as a yellow colored powder that rapidly changes to dark green and finally brown or black, presumably due to air oxidation. […] For that purpose, isoaaptamine (2) was first phosphorylated with dibenzylphosphate (Pettit, G. R. et al., Anti-Cancer Drug Design 2000, 15, 203-216; Silverberg, L. J., Tetrahedron Lett. 1996, 37, 771-774). […] Scheme 2 below illustrates the aforementioned synthesis method. [drawing 17] Biology

colon KM 20L2 = assay: Cancer cell growth inhibition, colon KM 20L2; format: cell-based, human; settings: colon KM 20L2; for IC50: Homo sapiens
Text: (§3) Evaluation of demethyloxyaaptamine (3), aaptamine (1), isoaaptamine (2) and hystatin 1 (11) against the Arizona State University Cancer Research Institute's human tumor cell line panel (Table 1) and the NCI 60-cell line human tumor screen were undertaken. (Boyd, M. R., Cancer: Principles and Practices of Oncology Updates; DeVita, et al., Eds; Lippincott: Philadelphia, 1989, Vol. 10, No. 3, pp. 1-12; Boyd, et al., Drug Development Research 1995, 34, 91-109; Boyd, M. R., et al. Cytotoxic Anticancer Drugs: Models and Concepts for Drug Discovery and Development; Valeriote, A., et al., Eds, Kluwer Academic Publishers: Amsterdam, 1992, pp. 11-34.)
as §1, §2

Staphylococcus aureus = assay: Broth microdilution susceptibility assay, Staphylococcus aureus; format: cell-based
Micrococcus luteus = assay: Broth microdilution susceptibility assay, Micrococcus luteus; format: cell-based
Enterobacter cloacae = assay: Broth microdilution susceptibility assay, Enterobacter cloacae; format: cell-based
lung NCI-H460 = assay: Cancer cell growth inhibition, lung NCI-H460; format: cell-based, human; settings: lung NCI-H460; for IC50: Homo sapiens
Text: as §3, §1, §2

Neisseria gonorrhoeae = assay: Broth microdilution susceptibility assay, Neisseria gonorrhoeae; format: cell-based
breast MCF-7 = assay: Cancer cell growth inhibition, breast MCF-7; format: cell-based, human; settings: breast MCF-7; for IC50: Homo sapiens, MCF7
Method: as §1, §2

[2] = system: murine P388 lymphocytic leukemia cell line; assay: Cancer cell growth inhibition, murine P388 lymphocytic leukemia cell line; format: cell-based; settings: for IC50: Mus musculus
Text: as §3, §1, §2

Candida albicans = assay: Broth microdilution susceptibility assay, Candida albicans; format: cell-based
prostrate DU-145 = assay: Cancer cell growth inhibition, prostate DU-145; format: cell-based, human; settings: for IC50: Homo sapiens
Method: as §1, §2

Streptococcus pneumoniae = assay: Broth microdilution susceptibility assay, Streptococcus pneumoniae; format: cell-based
CNS SF-268 = assay: Cancer cell growth inhibition, CNS SF-268; format: cell-based, human; settings: CNS SF-268; for IC50: Homo sapiens
Method: as §1, §2

[3] = system: Stenotrophomonas maltophilia; assay: Broth microdilution susceptibility assay, Stenotrophomonas maltophilia; format: cell-based
Escherichia coli = assay: Broth microdilution susceptibility assay, Escherichia coli; format: cell-based
Cryptococcus neoformans = assay: Broth microdilution susceptibility assay, Cryptococcus neoformans; format: cell-based
PKC alpha [4] = biological target: T1, PKC alpha (Homo sapiens, UniProt P17252); assay: Inhibition of PKC catalytic activity (peptide substrate phosphorylation); format: biochemical
Text: We further evaluated the ability of the derivatives to inhibit PKC catalytic activity. […] Inhibition by 10c was 19.5±7.6% and inhibition by 4, 5, and 9a, b, c was 6% or less (all values are mean±SEM, three experiments). […] In both cases, the inhibition curves were steeper than predicted for a competitive inhibitor, consistent with a complicated mechanism of action (Hill coefficients for 10a and 10b of 1.5±0.1 and 2.0±0.5, respectively).

[5] = system: Mycobacterium tuberculosis H37Rv; assay: Microplate Alamar Blue Assay, Mycobacterium tuberculosis; format: cell-based; settings: 6.25 μg/ml
PKC alpha [6] = biological target: T1, PKC alpha; assay: Inhibition of [3H]phorbol 12,13-dibutyrate binding to PKC alpha; settings: 30 μM compound; read-out: inhibition of [3H]phorbol 12,13-dibutyrate binding to PKC alpha
Method: Isoaaptamine (2) and derivatives 4, 5, 7, 8, and 14-18 were evaluated as ligands for PKC, based on the initial report of activity for isoaaptamine (Patil, et al., PCT Int. Appl. WO 95/0584 March 1995). Activity was measured at 30 μM compound using inhibition of [^3H-20]phorbol 12,13-dibutyrate binding to PKC alpha as described previously (Kazanietz, M. G., et al., Molecular Pharmacol., 1993, 44, 298). Assays were carried out with triplicate measurements in either single or triplicate experiments, depending on the compound.
Compounds 4, 5, 9a-c, and 10a-d were evaluated as ligands for PKC, based on the initial report of activity for isoaaptamine. Activity was measured at 30 μM compound using inhibition of [20-^3H]phorbol 12,13-dibutyrate binding to PKC alpha as described previously (Kazanietz, M. G., et al., Characterization of Ligand and Substrate Specificity for the Calcium-Dependent and Calcium-Independent Protein Kinase C Isoenzymes, Molecular Pharmacol. 1993, 44, 298-307). Assays were carried out with triplicate measurement in either single or triplicate experiments, depending on the compound. Inhibition by 9a and 9b was 6.4% and 9.2%, respectively. That by 10a, 10b, and 10d was 11.8%, 12.6%, and 16.0%, respectively. That by other derivatives was 5% or less. We conclude that these compounds show only very weak activity as ligands for PKC.

renal A498 = assay: Cancer cell growth inhibition, renal A498; format: cell-based, human; settings: Table 1
Text: (§4) (Boyd, M. R., Cancer: Principles and Practices of Oncology Updates; […], et al., Eds; Lippincott: Philadelphia, 1989, Vol. 10, No. 3, pp. 1-12; Boyd, et al., Drug Development Research 1995, 34, 91-109; Boyd, M. R., et al. Cytotoxic Anticancer Drugs: Models and Concepts for Drug Discovery and Development; Valeriote, A., et al., Eds, Kluwer Academic Publishers: Amsterdam, 1992, pp. 11-34.)

CNS SF-295 = assay: Cancer cell growth inhibition, CNS SF-295; format: cell-based, human; settings: Table 1
Text: as §4

ovary OVCAR-3 = assay: Cancer cell growth inhibition, ovary OVCAR-3; format: cell-based, human; settings: Table 1
Text: as §4

melanoma SK-MEL-5 = assay: Cancer cell growth inhibition, melanoma SK-MEL-5; format: cell-based, human; settings: Table 1
Text: as §4

tubulin = assay: Tubulin polymerization (assembly) inhibition; format: biochemical; settings: b138 series; 20 minutes incubation at 30° C.; read-out: IC50 for inhibition of extent of tubulin assembly
Method: Only minimal inhibitory activity was observed. While compounds 15 and 8 did inhibit the rate of polymerization by over 50% at 40 μM (the highest concentration examined), an IC50 value for inhibition of assembly extent was obtained only for compound 18. […] Thus, it seems unlikely that the cytotoxic mechanism for these aaptamine analogs derives from an interaction with tubulin.
A number of the aaptamine derivatives whose synthesis is described here were examined for potential effects on tubulin assembly. These were compounds 2, 4, 5, 9a-c, and 10a-d. […] For comparison, in experiments performed contemporaneously, the potent colchicine site drug combretastatin A-4 yielded an IC50 value of about 2 μM.

[7] = Table 5, read-out: Cancer Cell Line Results ED50
[8] = Table 3, read-out: Cancer cell growth inhibitory ED50
[9] = Table 2, read-out: Range of minimum inhibitory concentration
[10] = Table 1, read-out: Cancer Cell Line Results ED50

Disodium isoaaptamine 9-O-phosphate [Compound 11]
Cancer cell growth inhibitory ED50 (pancreas BXPC-3; Table 3): 0.74 µg/mL
Range of minimum inhibitory concentration (Enterococcus faecalis; Table 2): * (no inhibition at 64 ug/ml)
stability [1]: more stable
Cancer Cell Line Results ED50 (colon KM 20L2; Table 1): >10 µg/mL
Cancer cell growth inhibitory ED50 (colon KM 20L2; Table 3): 0.88 µg/mL
Range of minimum inhibitory concentration (Staphylococcus aureus; Table 2): 64 µg/mL
Range of minimum inhibitory concentration (Micrococcus luteus; Table 2): * (no inhibition at 64 ug/ml)
Range of minimum inhibitory concentration (Enterobacter cloacae; Table 2): * (no inhibition at 64 ug/ml)
Cancer Cell Line Results ED50 (lung NCI-H460; Table 1): >10 µg/mL
Cancer cell growth inhibitory ED50 (lung NCI-H460; Table 3): 1.9 µg/mL
Range of minimum inhibitory concentration (Neisseria gonorrhoeae; Table 2): <0.5 µg/mL
Cancer cell growth inhibitory ED50 (breast MCF-7; Table 3): 2.2 µg/mL
Cancer Cell Line Results ED50 ([2]; Table 1, leukemia murine P388): 3.0 µg/mL
Cancer cell growth inhibitory ED50 ([2]; Table 3, leukemia P-388): 0.23 µg/mL
Range of minimum inhibitory concentration (Candida albicans; Table 2): * (no inhibition at 64 ug/ml)
Cancer cell growth inhibitory ED50 (prostrate DU-145; Table 3, prostrate DU-145): 0.52 µg/mL
Range of minimum inhibitory concentration (Streptococcus pneumoniae; Table 2): 16 to 32 µg/mL
Cancer cell growth inhibitory ED50 (CNS SF-268; Table 3): 0.28 µg/mL
Range of minimum inhibitory concentration ([3]; Table 2): * (no inhibition at 64 ug/ml)
Range of minimum inhibitory concentration (Escherichia coli; Table 2): * (no inhibition at 64 ug/ml)
Range of minimum inhibitory concentration (Cryptococcus neoformans; Table 2): * (no inhibition at 64 ug/ml)

COc1ccc(CN2C=Cc3cc(OC)c(OC)c4c3c2cc[n+]4Cc2ccc(OC)cc2)cc1.[Br-] [Compound 10b, 8,9-Dimethoxy-1,4-bis-(4-methoxybenzyl)-4H-benzo-[de][1,6]naphthyridin-1-ium bromide]
IC50 (pancreas BXPC-3; [7]): 0.11 µg/mL
Range of minimum inhibitory concentration (Enterococcus faecalis; Table 6): 16 to 32 µg/mL
Hill coefficient of PKC inhibition curve (PKC alpha [4]): 2.0±0.5
inhibition at 30 µM (PKC alpha [4]; 30 μM compound, 1 μM phorbol 12-myristate 13-acetate, 100 μg/ml phospholipid, mean±SEM, three experiments, read-out: percent inhibition of PKC catalytic activity): 84.6 ± 1.1%
IC50 (PKC alpha [4]; complete dose response curves, mean±SEM, 3 experiments, read-out: ID50 for inhibition of PKC catalytic activity): 7.4 ± 1.2 µM
IC50 (colon KM 20L2; [7]): 0.13 µg/mL
Range of minimum inhibitory concentration (Staphylococcus aureus; Table 6): 4 µg/mL
Range of minimum inhibitory concentration (Micrococcus luteus; Table 6): <0.5 µg/mL
Range of minimum inhibitory concentration (Enterobacter cloacae; Table 6): * (no inhibition at 64 μg/mL)
IC50 (lung NCI-H460; [7]): 0.33 µg/mL
inhibition at 6.25 µg/mL [5]: 97%
Range of minimum inhibitory concentration (Neisseria gonorrhoeae; Table 6): 4 µg/mL
IC50 (breast MCF-7; [7]): 0.39 µg/mL
IC50 ([2]; Table 5, leukemia P388, read-out: Cancer Cell Line Results ED50): 1.3 µg/mL
Range of minimum inhibitory concentration (Candida albicans; Table 6): * (no inhibition at 64 μg/mL)
IC50 (prostrate DU-145; DU-145, Table 5, prostate DRU-145, read-out: Cancer Cell Line Results ED50): 0.1 µg/mL
Range of minimum inhibitory concentration (Streptococcus pneumoniae; Table 6): 16 to 32 µg/mL
IC50 (CNS SF-268; [7]): 0.27 µg/mL
Range of minimum inhibitory concentration ([3]; Table 6): * (no inhibition at 64 μg/mL)
Range of minimum inhibitory concentration (Escherichia coli; Table 6): * (no inhibition at 64 μg/mL)
Range of minimum inhibitory concentration (Cryptococcus neoformans; Table 6): 32 to 64 µg/mL
inhibition at 30 µM (PKC alpha [6]): 12.6%

COc1cc2ccnc3c2c(c1O)N(C)C=C3 [Compound 2, isoaaptamine]
IC50 (pancreas BXPC-3; [8]): 4.1 µg/mL (≈ 18 µM)
MIC (Enterococcus faecalis; [9]): 32 to 64 µg/mL (≈ 140 to 280 µM)
Cancer Cell Line Results ED50 (renal A498): 2.20 µg/mL
stability [1]: relatively unstable
IC50 (colon KM 20L2; [10]): 2.3 µg/mL (≈ 10.1 µM)
IC50 (colon KM 20L2; [8]): > 10 µg/mL
MIC (Staphylococcus aureus; [9]): 16 to 32 µg/mL (≈ 70.1 to 140 µM)
Cancer Cell Line Results ED50 (CNS SF-295): 2.60 µg/mL
MIC (Micrococcus luteus; [9]): 32 to 64 µg/mL (≈ 140 to 280 µM)
Range of minimum inhibitory concentration (Enterobacter cloacae; Table 2): * (no inhibition at 64 ug/ml)
IC50 (lung NCI-H460; [10]): 2.4 µg/mL (≈ 10.5 µM)
IC50 (lung NCI-H460; [8]): 2.9 µg/mL (≈ 12.7 µM)
MIC (Neisseria gonorrhoeae; [9]): < 0.5 µg/mL
IC50 (breast MCF-7; [8]): 2.2 µg/mL (≈ 9.64 µM)
IC50 ([2]; P388, Table 3, leukemia P-388, read-out: Cancer cell growth inhibitory ED50): 1.6 µg/mL (≈ 7.01 µM)
IC50 ([2]; Table 1, leukemia murine P388, read-out: Cancer Cell Line Results ED50): 0.28 µg/mL (≈ 1.23 µM)
P388 ED50 ([2]; murine P388): 0.28 µg/mL
Range of minimum inhibitory concentration (Candida albicans; Table 2): * (no inhibition at 64 ug/ml)
Cancer Cell Line Results ED50 (ovary OVCAR-3): 1.20 µg/mL
IC50 (prostrate DU-145; Table 3, prostrate DU-145, read-out: Cancer cell growth inhibitory ED50): 3.3 µg/mL (≈ 14.5 µM)
MIC (Streptococcus pneumoniae; [9]): 8 to 32 µg/mL (≈ 35 to 140 µM)
IC50 (CNS SF-268; [8]): 2.2 µg/mL (≈ 9.64 µM)
Cancer Cell Line Results ED50 (melanoma SK-MEL-5): 1.60 µg/mL
Range of minimum inhibitory concentration ([3]; Table 2): * (no inhibition at 64 ug/ml)
Range of minimum inhibitory concentration (Escherichia coli; Table 2): * (no inhibition at 64 ug/ml)
MIC (Cryptococcus neoformans; [9]): 64 µg/mL (≈ 280 µM)
inhibition at 30 µM (PKC alpha [6]): 13%
IC50 (tubulin): 31 µM
